Values quoted from earlier work, collected in US10446758B2, “Hole transporting material, OLED display panel and electronic device comprising the same” (SHANGHAI TIANMA AM-OLED CO., LTD., priority 2016, dated 2019).

Details: prior art material, background statement

CC1(C)c2ccccc2-c2ccc(N(c3ccc4c(c3)C3(c5ccccc5-c5ccccc53)c3ccccc3-4)c3ccccc3-c3ccccc3)cc21
solubility (in words): good
